Non-standard residues stand in square brackets, D forms with d. Residues, ends and D or L forms follow the SMILES beside them. dPhe(4-Cl) = N[C@H](Cc1ccc(Cl)cc1)C(=O)O; d2Nal = N[C@H](Cc1ccc2ccccc2c1)C(=O)O; dCit = NC(=O)NCCC[C@@H](N)C(=O)O; d3Pal = N[C@H](Cc1cccnc1)C(=O)O
Tested on: serum testosterone
Test: Second rat study: serum testosterone after cetrorelix PLGA formulations
Format: in vivo, rats
Description: In a second rat study serum testosterone and cetrorelix levels were measured over 12 weeks. […] The formulations found within Table 13 were injected in rats and then the testosterone was measured at 0, 1, 2, 8 and 24 hours and then daily until the end of the first week and then biweekly until week 4 and then weekly thereafter.
FIG. 21 compares the data from the 2nd rat and 1st dog study results for testosterone levels.

With `CC(=O)N[C@H](Cc1ccc2ccccc2c1)C(=O)N[C@H](Cc1ccc(Cl)cc1)C(=O)N[C@H](Cc1cccnc1)C(=O)N[C@@H](CO)C(=O)N[C@@H](Cc1ccc(O)cc1)C(=O)N[C@H](CCCNC(N)=O)C(=O)N[C@@H](CC(C)C)C(=O)N[C@@H](CCCNC(=N)N)C(=O)N1CCC[C@H]1C(=O)N[C@H](C)C(N)=O` [cetrorelix] (Ac-[d2Nal][dPhe(4-Cl)][d3Pal]SY[dCit]LRP[dA]-NH2) the “cetrorelix level required to inhibit testosterone production” value was 2 ng/mL.

— patent US20200282008A1, “COMPOSITIONS AND METHODS FOR LONG TERM RELEASE OF GONADOTROPIN-RELEASING HORMONE (GnRH) ANTAGONISTS” (VERU INC., priority 2017, published 2020)
